{"source": "patent US20030211177A1", "about": "“Method and composition for treatment and prevention of alopecia” (priority 2003, published 2003)", "origin": "cited, not measured here", "tested_on": "patients' hair (alopecia)", "details": "Propecia literature"}
{"molecule": "CC(C)(C)NC(=O)[C@H]1CC[C@H]2[C@@H]3CC[C@H]4NC(=O)C=C[C@]4(C)[C@H]3CC[C@]12C", "note": "[Propecia ®, finasteride]", "values": [{"measurement": "Excellent Improvement (percent of subjects)", "value": 0, "unit": "%"}, {"measurement": "Moderate Improvement (percent of subjects)", "value": 4, "unit": "%"}, {"measurement": "No Improvement (percent of subjects)", "value": 62, "unit": "%"}, {"measurement": "Slight Improvement (percent of subjects)", "value": 34, "unit": "%"}]}
